Laboratory results taken from ChEMBL document CHEMBL4330100, “Selective estrogen receptor degraders with novel structural motifs induce regression in a tamoxifen-resistant breast cancer xenograft” (Bioorg Med Chem Lett, 2019).
Calls of active or inactive are those of the source. No cut-off for these calls is given here.

Key:
Estrogen receptor = target: T1, Estrogen receptor (Homo sapiens, UniProt P03372); assay: Induction of ERalpha degradation in human MCF7 cells in phenol red free RPMI medium containing 5% charcoal-stripped FBS incubated for 4 hrs by IRDye 800CW/DRAQ5 dye based in-cell Western assay
T1 sequence (P03372 whole entry): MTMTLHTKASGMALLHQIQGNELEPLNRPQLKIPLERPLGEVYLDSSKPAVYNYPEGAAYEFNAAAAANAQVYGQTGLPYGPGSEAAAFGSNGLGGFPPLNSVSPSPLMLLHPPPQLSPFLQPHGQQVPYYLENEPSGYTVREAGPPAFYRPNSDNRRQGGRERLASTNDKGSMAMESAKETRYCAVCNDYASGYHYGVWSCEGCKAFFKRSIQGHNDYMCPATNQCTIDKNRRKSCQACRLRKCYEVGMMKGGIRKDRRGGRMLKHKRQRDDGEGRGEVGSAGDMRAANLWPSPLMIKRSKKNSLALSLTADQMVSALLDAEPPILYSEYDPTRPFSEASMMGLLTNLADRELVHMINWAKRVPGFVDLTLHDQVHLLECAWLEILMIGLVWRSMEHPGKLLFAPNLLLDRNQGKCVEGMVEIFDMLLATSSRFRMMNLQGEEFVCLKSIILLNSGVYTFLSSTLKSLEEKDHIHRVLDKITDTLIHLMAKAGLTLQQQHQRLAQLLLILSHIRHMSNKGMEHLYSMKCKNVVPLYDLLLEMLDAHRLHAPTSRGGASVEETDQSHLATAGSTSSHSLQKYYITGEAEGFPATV

MCF7 = assay: Antiproliferative activity against human MCF7 cells assessed as reduction in cell proliferation measured after 5 days by Cell-titer-Glo assay; format: functional, cell-based; details: MCF7, 120 h
Rattus norvegicus [1] = assay: In vivo antagonist activity at estrogen receptor in CD-IGS rat assessed as inhibition of estrogen-stimulated uterine growth at 1 mg/kg, po administered daily 15 mins before estrogen treatment for 3 days and measured 24 hrs post last dose relative to ARN-180; format: functional
[2] = AUC in CD-1 mouse at 10 mg/kg, po; format: ADME, organism-based; details: in vivo
[3] = Oral bioavailability in CD-1 mouse at 10 mg/kg; format: ADME, organism-based; details: in vivo; for bioavailability: CD-1, mouse
[4] = Volume of distribution at steady state in CD-1 mouse at 3 mg/kg, iv; format: ADME, organism-based; details: in vivo; for Vd: CD-1, mouse, read-out: Vdss
[5] = Half life in CD-1 mouse at 3 mg/kg, iv; format: ADME, organism-based; details: in vivo; for half-life: CD-1, mouse
[6] = Fraction unbound in 10% CD-1 mouse plasma at 10 uM measured after 20 to 24 hrs by equlibrium dialysis method; format: ADME, cell-free; details: 10% plasma
Homo sapiens = assay: Antitumor activity against human TamR1 cells xenografted in nu/nu mouse assessed as tumor regression at 30 mg/kg, po administered daily for 4 weeks; format: functional, organism-based
[7] = Plasma clearance in CD-1 mouse at 3 mg/kg, iv; format: ADME, organism-based
[8] = AUC in CD-1 mouse at 10 mg/kg, po administered at truncated timecourse (1, 4, 24 hrs); format: ADME, organism-based; details: in vivo
[9] = Oral bioavailability in CD-1 mouse at 10 mg/kg administered at truncated timecourse (1, 4, 24 hrs); format: ADME, organism-based; details: in vivo
[10] = Plasma clearance in CD-1 mouse at 2 mg/kg, iv administered as cassette dose; format: ADME, organism-based
[11] = Volume of distribution at steady state in CD-1 mouse at 2 mg/kg, iv administered as cassette dose; format: ADME, organism-based; details: in vivo, read-out: Vdss
[12] = Half life in CD-1 mouse at 2 mg/kg, iv administered as cassette dose; format: ADME, organism-based; details: in vivo
Rattus norvegicus [13] = assay: In vivo antagonist activity at estrogen receptor in CD-IGS rat assessed as reduction in 17alpha-ethynylestradiol-stimulated increase in uterine wet weight at 1 mg/kg, po administered daily 15 mins before 17alpha-ethynylestradiol treatment for 3 days and measured 24 hrs post last dose relative to basal level; format: functional

COc1ccc(/C(=C(\c2ccc(/C=C/C(=O)O)cc2)c2ccc3nccn3c2)C2CCC2)c(Cl)c1
EC50 (Estrogen receptor): 0.3 nM | IC50 (MCF7): 0.7 nM | Efficacy (Rattus norvegicus [1]): 93% | AUC ([2]; mouse): 8400 ng·h/mL | F ([3]; mouse): 69% | Vdss ([4]; mouse): 0.9 L/kg | t1/2 ([5]; mouse): 1.2 h | fraction unbound at 10 µM [6]: 0.015 | Activity (Homo sapiens): inactive

COc1ccc(/C(=C(\c2ccc(/C=C/C(=O)O)cc2)c2ccc(N3CCOCC3)cc2)C2CCC2)c(Cl)c1
EC50 (Estrogen receptor): 0.6 nM | IC50 (MCF7): 2.1 nM | Efficacy (Rattus norvegicus [1]): 92% | AUC ([2]; CD-1, mouse, read-out: AUC): 40000 ng·h/mL | bioavailability [3]: > 100% | clearance [7]: 5.1 mL/min/kg | Vd [4]: 1.5 L/kg | half-life [5]: 2.9 h | fraction unbound at 10 µM [6]: 0.004 | Activity (Homo sapiens): Active

COc1ccc(/C(=C(\c2ccc(/C=C/C(=O)O)cc2)c2ccc3scnc3c2)C2CCC2)c(Cl)c1
EC50 (Estrogen receptor): 0.4 nM | IC50 (MCF7): 0.9 nM | Efficacy (Rattus norvegicus [1]): 94% | AUC ([2]; CD-1, mouse, read-out: AUC): 75000 ng·h/mL | bioavailability [3]: 80% | clearance [7]: 1.8 mL/min/kg | Vd [4]: 0.3 L/kg | half-life [5]: 3.2 h | fraction unbound at 10 µM [6]: 0.002 | Activity (Homo sapiens): Active

COc1ccc(/C(=C(\c2ccc(/C=C/C(=O)O)cc2)c2ccc(-c3cncs3)cc2)C2CCC2)c(Cl)c1
EC50 (Estrogen receptor): 0.8 nM | IC50 (MCF7): 1.8 nM | Efficacy (Rattus norvegicus [1]): 93% | AUC at 24 h [8]: 3800 ng·h/mL | fraction unbound at 10 µM [6]: 0.001

COc1ccc(/C(=C(\c2ccc(/C=C/C(=O)O)cc2)c2ccc(-c3cn[nH]c3)cc2)C2CCC2)c(Cl)c1
EC50 (Estrogen receptor): 1.5 nM | IC50 (MCF7): 5.1 nM | Efficacy (Rattus norvegicus [1]): 93% | AUC at 24 h [8]: 18000 ng·h/mL | bioavailability [9]: 52% | clearance [10]: 4.8 mL/min/kg | Vd [11]: 0.6 L/kg | half-life [12]: 3 h | fraction unbound at 10 µM [6]: 0.002

N#Cc1cc(Cl)ccc1/C(=C(\c1ccc(/C=C/C(=O)O)cc1)c1ccc(-c2cncs2)cc1)C1CCC1
EC50 (Estrogen receptor): 1.9 nM | IC50 (MCF7): 4.3 nM | Efficacy (Rattus norvegicus [13]): 94%

CC/C(=C(/c1ccc(/C=C/C(=O)O)cc1)c1ccc2[nH]ncc2c1)c1ccc(F)cc1Cl [BRILANESTRANT]
half-life [5]: 4.6 h | fraction unbound at 10 µM [6]: 0.011

O=C(O)/C=C/c1ccc(/C(=C(\c2ccc(C(F)(F)F)cc2Cl)C2CCC2)c2ccc3scnc3c2)cc1
EC50 (Estrogen receptor): 1 nM | IC50 (MCF7): 2.6 nM | Efficacy (Rattus norvegicus [13]): 93%

N#Cc1cc(Cl)ccc1/C(=C(\c1ccc(/C=C/C(=O)O)cc1)c1ccc(-c2cn[nH]c2)cc1)C1CCC1
EC50 (Estrogen receptor): 1.1 nM | IC50 (MCF7): 4.4 nM | Efficacy (Rattus norvegicus [13]): 94%
